Results published in ChEMBL document CHEMBL1201862, “PubChem BioAssay data set” (2004).
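Exposure lasted 48 hours, with cells grown in 96-well plates and compounds tested at five concentrations. The concentration for 50% growth inhibition is given as GI50.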 Active and inactive are the calls of the source. Rule as the data show it: active = GI50 up to about 1.1 µM and inactive = higher.

Columns and labels:
Assay in all cases: inhibition of tumour cell growth, NCI panel, 48 h
[1] = test system: 786-0
[2] = test system: ACHN
[3] = test system: CCRF-CEM
[4] = test system: COLO 205
[5] = test system: DU-145
[6] = test system: HCT-15
[7] = test system: LOX IMVI
[8] = test system: M14
[9] = test system: MDA-MB-231
[10] = test system: MDA-MB-435
[11] = test system: MDA-N
[12] = test system: Malme-3M
[13] = test system: OVCAR-4
[14] = test system: OVCAR-8
[15] = test system: RPMI-8226
[16] = test system: SN12C
[17] = test system: SNB-19
[18] = test system: U-251

| Structure (SMILES) | GI50 [1] | GI50 [2] | GI50 [3] | GI50 [4] | GI50 [5] | GI50 [6] [µM] | GI50 [7] | GI50 [8] | GI50 [9] | GI50 [10] | GI50 [11] | GI50 [12] | GI50 [13] | GI50 [14] | GI50 [15] | GI50 [16] | GI50 [17] | GI50 [18] |
| --- | --- | --- | --- | --- | --- | --- | --- | --- | --- | --- | --- | --- | --- | --- | --- | --- | --- | --- |
| COc1ccn(CC(=O)c2cc3ccccc3[nH]2)c(=O)n1 | > 100 µM (inactive) | > 100 µM (inactive) | > 100 µM (inactive) | > 100 µM (inactive) | > 100 µM (inactive) | > 100 | > 100 µM (inactive) | > 100 µM (inactive) | > 100 µM (inactive) | > 100 µM (inactive) | > 100 µM (inactive) | > 100 µM (inactive) | > 100 µM (inactive) | > 100 µM (inactive) | > 100 µM (inactive) | > 100 µM (inactive) | > 100 µM (inactive) | > 100 µM (inactive) |
| Cc1ccc(N/C(SCc2ccccc2)=C(\C(Cl)=C(Cl)Cl)[N+](=O)[O-])c(C)c1 | 23.6 µM (inactive) | 43 µM (inactive) | 31 µM (inactive) | 17.8 µM (inactive) | 6.31 µM (inactive) | 17.7 | – | 16.9 µM (inactive) | 14.6 µM (inactive) | 7.21 µM (inactive) | 22.2 µM (inactive) | 21.4 µM (inactive) | 10.8 µM (inactive) | 18.5 µM (inactive) | 21.1 µM (inactive) | 20.4 µM (inactive) | 30.4 µM (inactive) | 15.6 µM (inactive) |
| CC(=S)N/C=C1/C(=O)C=C(C)OC1=O | > 100 µM (inactive) | > 100 µM (inactive) | > 100 µM (inactive) | > 100 µM (inactive) | > 100 µM (inactive) | > 100 | > 100 µM (inactive) | > 100 µM (inactive) | > 100 µM (inactive) | > 100 µM (inactive) | > 100 µM (inactive) | – | > 100 µM (inactive) | > 100 µM (inactive) | > 100 µM (inactive) | > 100 µM (inactive) | > 100 µM (inactive) | > 100 µM (inactive) |
| CC(=O)O[C@H]1C[C@H](O[C@H]2[C@@H](O)C[C@H](O[C@H]3[C@@H](O)C[C@H](O[C@H]4CC[C@@]5(C)[C@H](CC[C@@H]6[C@@H]5CC[C@]5(C)[C@@H](C7=CC(=O)OC7)CC[C@]65O)C4)O[C@@H]3C)O[C@@H]2C)O[C@H](C)[C@H]1O[C@@H]1O[C@H](CO)[C@@H](O)[C@H](O)[C@H]1O | 0.0162 µM (active) | < 0.01 µM (active) | 0.0269 µM (active) | 0.0491 µM (active) | < 0.01 µM (active) | 0.0231 | < 0.0159 µM (active) | 0.0634 µM (active) | 0.256 µM (active) | 0.034 µM (active) | 0.0398 µM (active) | 0.0278 µM (active) | < 0.0179 µM (active) | 0.0275 µM (active) | 0.0373 µM (active) | 0.0243 µM (active) | 0.0658 µM (active) | 0.032 µM (active) |
| Oc1ccc(-c2csc(N/N=C3\NC/C(=C/c4ccc5c(c4)OCO5)S3)n2)cc1O | 30.6 µM (inactive) | 17 µM (inactive) | – | 29.1 µM (inactive) | 26.7 µM (inactive) | 19.1 | 11.6 µM (inactive) | 11.2 µM (inactive) | 55.8 µM (inactive) | 3.21 µM (inactive) | 3.4 µM (inactive) | – | 32.9 µM (inactive) | 29.2 µM (inactive) | – | 33.5 µM (inactive) | 14.4 µM (inactive) | 22.1 µM (inactive) |
